Active and inactive are the calls of the source. The calls are words filed in the database; no cut-off is given here.
Assays:
UACC-257 [1] = assay: Growth inhibition of human UACC-257 cells incubated for 48 hrs by sulforhodamine B assay; assay type: functional
BV-2 [2] = assay: Antiinflammatory activity against mouse BV2 cells assessed as decrease in LPS-induced NO production at 1 to 5 uM pretreated with compound followed by LPS stimulation incubated for 4 to 48 hrs by enzyme immunoassay; assay type: functional, cell-based; conditions: dose 1-5 µM, time 4-48 hrs
OVCAR-5 [3] = assay: Growth inhibition of human OVCAR-5 cells incubated for 48 hrs by sulforhodamine B assay; assay type: functional
UACC-62 [4] = assay: Growth inhibition of human UACC-62 cells at 10 uM incubated for 48 hrs by sulforhodamine B assay relative to control; assay type: functional; conditions: read-out: GI
SK-MEL-2 [5] = assay: Growth inhibition of human SK-MEL-2 cells at 10 uM incubated for 48 hrs by sulforhodamine B assay relative to control; assay type: functional; conditions: read-out: GI
HCT-116 [6] = assay: Growth inhibition of human HCT-116 cells incubated for 48 hrs by sulforhodamine B assay; assay type: functional
NCI-H460 [7] = assay: Growth inhibition of human NCI-H460 cells at 10 uM incubated for 48 hrs by sulforhodamine B assay relative to control; assay type: functional; conditions: read-out: GI
BV-2 [8] = assay: Antiinflammatory activity against mouse BV2 cells assessed as reduction in LPS-induced IL6 production at 1 uM by enzyme immunoassay; assay type: functional, cell-based
SF-295 [9] = assay: Growth inhibition of human SF-295 cells at 10 uM incubated for 48 hrs by sulforhodamine B assay relative to control; assay type: functional; conditions: read-out: GI
NCI-H226 [10] = assay: Growth inhibition of human NCI-H226 cells incubated for 48 hrs by sulforhodamine B assay; assay type: functional
T47D [11] = assay: Growth inhibition of human T47D cells at 10 uM incubated for 48 hrs by sulforhodamine B assay relative to control; assay type: functional; conditions: read-out: GI
MDA-MB-468 [12] = assay: Growth inhibition of human MDA-MB-468 cells at 10 uM incubated for 48 hrs by sulforhodamine B assay relative to control; assay type: functional; conditions: read-out: GI
OVCAR-4 [13] = assay: Growth inhibition of human OVCAR-4 cells incubated for 48 hrs by sulforhodamine B assay; assay type: functional
RPMI-8226 [14] = assay: Growth inhibition of human RPMI-8226 cells incubated for 48 hrs by sulforhodamine B assay; assay type: functional; conditions: dose 10 µM
NCI-H226 [15] = assay: Growth inhibition of human NCI-H226 cells at 10 uM incubated for 48 hrs by sulforhodamine B assay relative to control; assay type: functional; conditions: read-out: GI
CAKI-1 [16] = assay: Growth inhibition of human CAKI-1 cells incubated for 48 hrs by sulforhodamine B assay; assay type: functional
RPMI-8226 [17] = assay: Growth inhibition of human RPMI8226 cells at 10 uM incubated for 48 hrs by sulforhodamine B assay relative to control; assay type: functional; conditions: read-out: GI
SW-620 [18] = assay: Growth inhibition of human SW-620 cells incubated for 48 hrs by sulforhodamine B assay; assay type: functional
SK-OV-3 [19] = assay: Growth inhibition of human SK-OV-3 cells at 10 uM incubated for 48 hrs by sulforhodamine B assay relative to control; assay type: functional; conditions: read-out: GI
SK-OV-3 [20] = assay: Growth inhibition of human SK-OV-3 cells incubated for 48 hrs by sulforhodamine B assay; assay type: functional
IGROV-1 [21] = assay: Growth inhibition of human IGROV-1 cells incubated for 48 hrs by sulforhodamine B assay; assay type: functional
OVCAR-3 [22] = assay: Growth inhibition of human OVCAR-3 cells incubated for 48 hrs by sulforhodamine B assay; assay type: functional
HOP-92 [23] = assay: Growth inhibition of human HOP-92 cells at 10 uM incubated for 48 hrs by sulforhodamine B assay relative to control; assay type: functional; conditions: read-out: GI
A498 [24] = assay: Growth inhibition of human A498 cells at 10 uM incubated for 48 hrs by sulforhodamine B assay relative to control; assay type: functional; conditions: read-out: GI
U-251 [25] = assay: Growth inhibition of human U-251 cells at 10 uM incubated for 48 hrs by sulforhodamine B assay relative to control; assay type: functional; conditions: read-out: GI
TK-10 [26] = assay: Growth inhibition of human TK-10 cells at 10 uM incubated for 48 hrs by sulforhodamine B assay relative to control; assay type: functional; conditions: read-out: GI
UO-31 [27] = assay: Growth inhibition of human UO-31 cells at 10 uM incubated for 48 hrs by sulforhodamine B assay relative to control; assay type: functional; conditions: read-out: GI
CAKI-1 [28] = assay: Growth inhibition of human CAKI-1 cells at 10 uM incubated for 48 hrs by sulforhodamine B assay relative to control; assay type: functional; conditions: read-out: GI
BV-2 [29] = assay: Cytotoxicity against mouse BV2 cells incubated for 48 hrs by MTT assay; assay type: cell-based; conditions: BV-2, 48 h
NCI-H460 [30] = assay: Growth inhibition of human NCI-H460 cells incubated for 48 hrs by sulforhodamine B assay; assay type: functional
IGROV-1 [31] = assay: Growth inhibition of human IGROV-1 cells at 10 uM incubated for 48 hrs by sulforhodamine B assay relative to control; assay type: functional; conditions: read-out: GI
SK-MEL-2 [32] = assay: Growth inhibition of human SK-MEL-2 cells incubated for 48 hrs by sulforhodamine B assay; assay type: functional
SR [33] = assay: Growth inhibition of human SR cells incubated for 48 hrs by sulforhodamine B assay; assay type: functional
MDA-MB-468 [34] = assay: Growth inhibition of human MDA-MB-468 cells incubated for 48 hrs by sulforhodamine B assay; assay type: functional
K562 [35] = assay: Growth inhibition of human K562 cells at 10 uM incubated for 48 hrs by sulforhodamine B assay relative to control; assay type: functional; conditions: read-out: GI
SW-620 [36] = assay: Growth inhibition of human SW-620 cells at 10 uM incubated for 48 hrs by sulforhodamine B assay relative to control; assay type: functional; conditions: read-out: GI
SR [37] = assay: Growth inhibition of human SR cells at 10 uM incubated for 48 hrs by sulforhodamine B assay relative to control; assay type: functional; conditions: read-out: GI
OVCAR-4 [38] = assay: Growth inhibition of human OVCAR-4 cells at 10 uM incubated for 48 hrs by sulforhodamine B assay relative to control; assay type: functional; conditions: read-out: GI
MDA-MB-231 [39] = assay: Growth inhibition of human MDA-MB-231 cells at 10 uM incubated for 48 hrs by sulforhodamine B assay relative to control; assay type: functional; conditions: read-out: GI
UO-31 [40] = assay: Growth inhibition of human UO-31 cells incubated for 48 hrs by sulforhodamine B assay; assay type: functional
UACC-62 [41] = assay: Growth inhibition of human UACC-62 cells incubated for 48 hrs by sulforhodamine B assay; assay type: functional
UACC-257 [42] = assay: Growth inhibition of human UACC-257 cells at 10 uM incubated for 48 hrs by sulforhodamine B assay relative to control; assay type: functional; conditions: read-out: GI
MDA-MB-231 [43] = assay: Growth inhibition of human MDA-MB-231 cells incubated for 48 hrs by sulforhodamine B assay; assay type: functional
MCF7 [44] = assay: Growth inhibition of human MCF7 cells at 10 uM incubated for 48 hrs by sulforhodamine B assay relative to control; assay type: functional; conditions: read-out: GI
OVCAR-5 [45] = assay: Growth inhibition of human OVCAR-5 cells at 10 uM incubated for 48 hrs by sulforhodamine B assay relative to control; assay type: functional; conditions: read-out: GI
MCF7 [46] = assay: Growth inhibition of human MCF7 cells incubated for 48 hrs by sulforhodamine B assay; assay type: functional
[47] = system: Panel NCI-60 (60 carcinoma cell lines); assay: Growth inhibition of human Panel NCI-60 (60 carcinoma cell lines) incubated for 48 hrs by sulforhodamine B assay; assay type: functional
BV-2 [48] = assay: Antiinflammatory activity against mouse BV2 cells assessed as inhibition of LPS-induced TNFalpha production at 1 uM by enzyme immunoassay; assay type: functional; set-up: scale not given: the % may be the effect or the level left
K562 [49] = assay: Growth inhibition of human K562 cells incubated for 48 hrs by sulforhodamine B assay; assay type: functional
OVCAR-3 [50] = assay: Growth inhibition of human OVCAR-3 cells at 10 uM incubated for 48 hrs by sulforhodamine B assay relative to control; assay type: functional; conditions: read-out: GI
TK-10 [51] = assay: Growth inhibition of human TK-10 cells incubated for 48 hrs by sulforhodamine B assay; assay type: functional
[52] = Therapeutic index, ratio of LC50 for human Panel NCI-60 (60 carcinoma cell lines) to GI50 for human Panel NCI-60 (60 carcinoma cell lines); assay type: functional
A498 [53] = assay: Growth inhibition of human A498 cells incubated for 48 hrs by sulforhodamine B assay; assay type: functional
U-251 [54] = assay: Growth inhibition of human U-251 cells incubated for 48 hrs by sulforhodamine B assay; assay type: functional
T47D [55] = assay: Growth inhibition of human T47D cells incubated for 48 hrs by sulforhodamine B assay; assay type: functional
HCT-116 [56] = assay: Growth inhibition of human HCT-116 cells at 10 uM incubated for 48 hrs by sulforhodamine B assay relative to control; assay type: functional; conditions: read-out: GI
SF-295 [57] = assay: Growth inhibition of human SF-295 cells incubated for 48 hrs by sulforhodamine B assay; assay type: functional
HOP-62 [58] = assay: Growth inhibition of human HOP-62 cells at 10 uM incubated for 48 hrs by sulforhodamine B assay relative to control; assay type: functional; conditions: read-out: GI
HOP-92 [59] = assay: Growth inhibition of human HOP-92 cells incubated for 48 hrs by sulforhodamine B assay; assay type: functional
HOP-62 [60] = assay: Growth inhibition of human HOP-62 cells incubated for 48 hrs by sulforhodamine B assay; assay type: functional
[61] = read-out: LC50 (the source's name)

O=C1COCCN1c1ccc(NCc2cn(Cc3ccc(Cl)cc3)c3ccccc23)cc1
GI50 (UACC-257 [1]): 0.27 µM
Activity (BV-2 [2]): Active
GI50 (OVCAR-5 [3]): 0.18 µM
CC50 (OVCAR-5 [3]; [61]): 9.6 µM
inhibition of growth at 10 µM (UACC-62 [4]): 100%
inhibition of growth at 10 µM (SK-MEL-2 [5]): 89%
GI50 (HCT-116 [6]): 0.24 µM
inhibition of growth at 10 µM (NCI-H460 [7]): 93%
Activity (BV-2 [8]): Active
inhibition of growth at 10 µM (SF-295 [9]): 85%
GI50 (NCI-H226 [10]): 0.15 µM
CC50 (NCI-H226 [10]; [61]): 3.6 µM
inhibition of growth at 10 µM (T47D [11]): 95%
inhibition of growth at 10 µM (MDA-MB-468 [12]): 100%
GI50 (OVCAR-4 [13]): 0.48 µM
GI50 (RPMI-8226 [14]): 2.1 µM
inhibition of growth at 10 µM (NCI-H226 [15]): 93%
GI50 (CAKI-1 [16]): 0.05 µM
CC50 (CAKI-1 [16]; [61]): > 100 µM
inhibition of growth at 10 µM (RPMI-8226 [17]): 95%
GI50 (SW-620 [18]): 2.2 µM
inhibition of growth at 10 µM (SK-OV-3 [19]): 91%
GI50 (SK-OV-3 [20]): 2.29 µM
GI50 (IGROV-1 [21]): 0.25 µM
GI50 (OVCAR-3 [22]): 1.2 µM
inhibition of growth at 10 µM (HOP-92 [23]): 90%
inhibition of growth at 10 µM (A498 [24]): 100%
inhibition of growth at 10 µM (U-251 [25]): 89%
inhibition of growth at 10 µM (TK-10 [26]): 100%
inhibition of growth at 10 µM (UO-31 [27]): 92%
inhibition of growth at 10 µM (CAKI-1 [28]): 100%
IC50 (BV-2 [29]): > 10 µM
GI50 (NCI-H460 [30]): 0.26 µM
inhibition of growth at 10 µM (IGROV-1 [31]): 100%
GI50 (SK-MEL-2 [32]): 2.18 µM
GI50 (SR [33]): 3 µM
GI50 (MDA-MB-468 [34]): 0.1 µM
CC50 (MDA-MB-468 [34]; [61]): 0.8 µM
inhibition of growth at 10 µM (K562 [35]): 94%
inhibition of growth at 10 µM (SW-620 [36]): 73%
inhibition of growth at 10 µM (SR [37]): 87%
inhibition of growth at 10 µM (OVCAR-4 [38]): 94%
inhibition of growth at 10 µM (MDA-MB-231 [39]): 77%
GI50 (UO-31 [40]): 2.08 µM
GI50 (UACC-62 [41]): 0.39 µM
inhibition of growth at 10 µM (UACC-257 [42]): 100%
GI50 (MDA-MB-231 [43]): 4.5 µM
inhibition of growth at 10 µM (MCF7 [44]): 96%
inhibition of growth at 10 µM (OVCAR-5 [45]): 100%
GI50 (MCF7 [46]): 0.29 µM
GI50 [47]: 2.09 µM
TGI [47]: 25.1 µM
CC50 [47, 61]: 70.8 µM
Activity (BV-2 [48]): 75%
GI50 (K562 [49]): 1.8 µM
inhibition of growth at 10 µM (OVCAR-3 [50]): 96%
GI50 (TK-10 [51]): 0.14 µM
CC50 (TK-10 [51]; [61]): > 100 µM
TI [52]: 34
GI50 (A498 [53]): 0.03 µM
CC50 (A498 [53]; [61]): 0.4 µM
GI50 (U-251 [54]): 1.2 µM
GI50 (T47D [55]): 0.26 µM
inhibition of growth at 10 µM (HCT-116 [56]): 96%
GI50 (SF-295 [57]): 1.8 µM
inhibition of growth at 10 µM (HOP-62 [58]): 83%
GI50 (HOP-92 [59]): 1.6 µM
GI50 (HOP-62 [60]): 1 µM
